Here are results for 1 compound from article PMC5123277, “Cloning, functional expression and characterization of a bifunctional 3-hydroxybutanal dehydrogenase /reductase involved in acetone metabolism by Desulfococcus biacutus” (BMC Microbiology, 2016).

This experiment concerns T1, Debia-MDR.
T1 construct: gene DebiaDRAFT_04514; full-length, N-terminal His6-tag (pET100, tag kept), E. coli Rosetta 2 (DE3); monomer 38,272 Da predicted, approx. 41 kDa with tag; native about 170 kDa, homotetramer; forward primer […]; (N-terminus MAKMMKT by translation)
As to the kind of experiment: spectrophotometric NADH consumption at […] nm. Format: biochemical, Desulfococcus biacutus. The note with it: reduction direction, NADH co-substrate (0.1 mM in the general assay); 50 uM ZnCl2, 3 mM DTT, anoxic; general assay 25 mM MOPS pH 7.2, 30 °C.

SMILES strings stand for the structures.

The Km is the concentration of substrate that gives half-maximal velocity. Consider `CC(C)=O` [acetone], for which the Km came out at 40 µM.
